Activity calls are given as the source filed them. The calls are words filed in the database; no cut-off is given here.
What was measured:
[1] = Cytotoxicity against human UM-UC-3 cells by MTT assay; format: functional, cell-based; conditions: UMUC3
[2] = Cytotoxicity against human DLD1 cells by MTT assay; format: functional, cell-based; conditions: DLD-1
[3] = Cytotoxicity against human T24 cells by MTT assay; format: functional, cell-based; conditions: T-24
[4] = system: MCF7; experiment: Cytotoxicity against human MCF7 cells by MTT assay; format: functional, cell-based
[5] = biological target: T1, Protein arginine N-methyltransferase 1 (Homo sapiens, UniProt Q99873); experiment: Inhibition of PRMT1 (unknown origin) using biotinylated histone H4-derived peptide as substrate at 50 uM after 60 mins by AlphaLISA assay
Target sequence in this assay (Q99873 whole entry, looked up): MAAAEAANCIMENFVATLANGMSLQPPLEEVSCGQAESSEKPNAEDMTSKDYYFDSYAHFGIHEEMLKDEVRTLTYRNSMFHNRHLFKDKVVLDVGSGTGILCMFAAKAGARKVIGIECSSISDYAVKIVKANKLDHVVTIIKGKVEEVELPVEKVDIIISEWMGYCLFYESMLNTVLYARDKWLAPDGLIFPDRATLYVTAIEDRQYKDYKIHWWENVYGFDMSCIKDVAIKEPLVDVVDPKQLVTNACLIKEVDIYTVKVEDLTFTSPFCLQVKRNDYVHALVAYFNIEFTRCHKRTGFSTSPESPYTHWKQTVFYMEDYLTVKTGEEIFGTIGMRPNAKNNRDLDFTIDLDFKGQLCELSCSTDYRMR

[6] = system: SH-SY5Y; experiment: Cytotoxicity against human SH-SY5Y cells by MTT assay; format: functional, cell-based
[7] = system: A-375; experiment: Cytotoxicity against human A375 cells by MTT assay; format: functional, cell-based
[8] = biological target: T1, Protein arginine N-methyltransferase 1; experiment: Inhibition of PRMT1 (unknown origin) using biotinylated histone H4-derived peptide as substrate after 60 mins by AlphaLISA assay
Target sequence in this assay (Q99873 whole entry): as the sequence (Q99873 whole entry, looked up) above

[9] = biological target: Protein arginine N-methyltransferase 6 (Homo sapiens, UniProt Q96LA8); experiment: Inhibition of PRMT6 (unknown origin) using biotinylated histone H4-derived peptide as substrate after 60 mins by AlphaLISA assay
Sequence of Protein arginine N-methyltransferase 6 (Q96LA8 whole entry): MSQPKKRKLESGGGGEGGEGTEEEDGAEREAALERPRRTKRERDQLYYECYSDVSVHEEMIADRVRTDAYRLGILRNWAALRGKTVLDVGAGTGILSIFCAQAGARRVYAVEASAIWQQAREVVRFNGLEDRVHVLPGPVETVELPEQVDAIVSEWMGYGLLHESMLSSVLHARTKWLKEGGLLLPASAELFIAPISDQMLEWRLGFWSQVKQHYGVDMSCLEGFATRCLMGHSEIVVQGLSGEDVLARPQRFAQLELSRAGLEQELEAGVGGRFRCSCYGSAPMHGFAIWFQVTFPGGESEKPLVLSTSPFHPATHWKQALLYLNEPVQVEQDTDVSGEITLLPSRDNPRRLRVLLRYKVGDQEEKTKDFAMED

[10] = biological target: T2, Histone-arginine methyltransferase CARM1 (Homo sapiens, UniProt Q86X55); experiment: Inhibition of PRMT4 (unknown origin) using biotinylated histone H4-derived peptide as substrate after 60 mins by AlphaLISA assay
T2 sequence (Q86X55 whole entry): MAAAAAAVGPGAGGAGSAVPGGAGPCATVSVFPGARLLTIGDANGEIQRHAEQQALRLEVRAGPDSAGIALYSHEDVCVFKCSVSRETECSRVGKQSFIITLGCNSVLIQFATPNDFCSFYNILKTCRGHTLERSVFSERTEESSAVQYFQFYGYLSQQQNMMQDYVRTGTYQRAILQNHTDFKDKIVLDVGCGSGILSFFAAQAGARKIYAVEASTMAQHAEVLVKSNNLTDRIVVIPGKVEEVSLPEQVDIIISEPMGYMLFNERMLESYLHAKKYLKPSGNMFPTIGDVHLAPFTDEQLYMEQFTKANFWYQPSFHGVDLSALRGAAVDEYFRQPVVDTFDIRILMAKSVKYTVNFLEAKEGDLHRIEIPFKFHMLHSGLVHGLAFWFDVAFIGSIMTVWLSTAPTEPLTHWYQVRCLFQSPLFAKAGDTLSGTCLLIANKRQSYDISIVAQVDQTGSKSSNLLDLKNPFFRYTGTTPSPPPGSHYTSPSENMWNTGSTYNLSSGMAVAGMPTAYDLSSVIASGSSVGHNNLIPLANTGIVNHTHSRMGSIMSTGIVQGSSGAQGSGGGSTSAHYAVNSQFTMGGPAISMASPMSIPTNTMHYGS

[11] = biological target: T1, Protein arginine N-methyltransferase 1; experiment: Non-competitive inhibition of PRMT1 (unknown origin) using biotinylated histone H4-derived peptide as substrate by Michaelis-Menten kinetic equation analysis
Target sequence in this assay (Q99873 whole entry): as the sequence (Q99873 whole entry, looked up) above

[12] = biological target: T1, Protein arginine N-methyltransferase 1; experiment: Inhibition of PRMT1 in human DLD1 cells assessed as effect on symmetric dimethylation of histone H3R8 level at 1 to 30 uM by Western blotting; format: cell-based; conditions: DLD-1
Target sequence in this assay (Q99873 whole entry, looked up): as above

[13] = biological target: T1, Protein arginine N-methyltransferase 1; experiment: Inhibition of PRMT1 in human DLD1 cells assessed as reduction of asymmetric dimethylation of histone H4R3 level at 3 uM by Western blotting; format: cell-based; conditions: DLD-1
Target sequence in this assay (Q99873 whole entry, looked up): as above

[14] = biological target: Protein arginine N-methyltransferase 5 (Homo sapiens, UniProt O14744); experiment: Inhibition of PRMT5 (unknown origin) using biotinylated histone H4-derived peptide as substrate after 60 mins by AlphaLISA assay
Sequence of Protein arginine N-methyltransferase 5 (O14744 whole entry): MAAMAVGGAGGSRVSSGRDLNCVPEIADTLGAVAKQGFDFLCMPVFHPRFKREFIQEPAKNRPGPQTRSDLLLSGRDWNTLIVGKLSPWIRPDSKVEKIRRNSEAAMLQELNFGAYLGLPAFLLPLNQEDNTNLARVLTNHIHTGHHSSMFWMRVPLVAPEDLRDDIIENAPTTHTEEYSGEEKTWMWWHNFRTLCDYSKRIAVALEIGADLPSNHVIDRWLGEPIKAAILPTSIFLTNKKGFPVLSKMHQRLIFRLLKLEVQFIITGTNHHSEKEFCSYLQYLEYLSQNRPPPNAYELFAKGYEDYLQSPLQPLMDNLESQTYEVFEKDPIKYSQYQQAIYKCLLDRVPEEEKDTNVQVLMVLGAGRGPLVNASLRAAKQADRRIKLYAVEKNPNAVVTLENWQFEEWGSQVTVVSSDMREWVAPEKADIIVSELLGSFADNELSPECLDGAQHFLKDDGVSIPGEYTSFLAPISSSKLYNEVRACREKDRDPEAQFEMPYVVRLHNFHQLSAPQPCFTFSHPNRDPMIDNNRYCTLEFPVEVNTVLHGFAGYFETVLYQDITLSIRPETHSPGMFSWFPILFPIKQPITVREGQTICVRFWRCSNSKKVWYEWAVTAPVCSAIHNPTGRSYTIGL

Compound | inhibition [5] [%] | IC50 [1] [µM] | IC50 [2] [µM] | IC50 [3] [µM] | IC50 [4] [µM] | IC50 [6] [µM] | IC50 [7] [µM] | also measured
N=C(N)c1ccc(Nc2ncnc(Nc3ccc(S(N)(=O)=O)cc3)c2[N+](=O)[O-])cc1 | 28 | 84.6 | 8.5 | 86.8 | > 100 | 92.4 | > 100 | 
N=C(N)c1ccc(Nc2ncnc(Nc3ccc(N)cc3)c2[N+](=O)[O-])cc1 | 28 |  |  |  |  |  |  | 
O=C(Nc1ccc2c(O)cc(S(=O)(=O)O)cc2c1)Nc1ccc2c(O)cc(S(=O)(=O)O)cc2c1 |  | > 100 | > 100 | > 100 | > 100 | > 100 | > 100 | 
N=C(N)c1ccc(Nc2ncnc(Nc3ccc(C(N)=O)cc3)c2[N+](=O)[O-])cc1 |  |  |  |  |  |  |  | IC50 [8]: 9.3 µM
N#Cc1ccc(Nc2ncnc(Nc3ccc(C(=N)N)cc3)c2[N+](=O)[O-])cc1 |  | 45.4 | 4.4 | 13.1 | 50.6 | 11.4 | > 100 | IC50 [8]: 2 µM; IC50 [9]: > 100 µM; IC50 [10]: 10 µM; Ki [11]: 1.7 µM; inhibition [12]: inactive; inhibition [13]: Active; IC50 [14]: > 100 µM

Now from value to compound, other results behind:

inhibition [5] [%] | Compound | IC50 [1] [µM] | IC50 [2] [µM] | IC50 [3] [µM] | IC50 [4] [µM] | IC50 [6] [µM] | IC50 [7] [µM] | also measured
49 | N=C(N)c1ccc(Nc2ncnc(NCC(N)=O)c2[N+](=O)[O-])cc1 |  |  |  |  |  |  | 
9 | N=C(N)c1ccc(Nc2ncnc(Nc3ccccc3)c2[N+](=O)[O-])cc1 |  |  |  |  |  |  | 
44 | COc1cc(Nc2ncnc(Nc3ccc(C(=N)N)cc3)c2[N+](=O)[O-])cc(OC)c1OC | 65.4 | 83.8 | 18.3 | 58.7 | 16.2 | 87.6 | 

From ChEMBL document CHEMBL3632463, “Discovery and structure-activity analysis of 4-((5-nitropyrimidin-4-yl)amino)benzimidamide derivatives as novel protein arginine methyltransferase 1 (PRMT1) inhibitors” (Bioorg Med Chem Lett, 2015)
